Measured values published in US6403357B1, “Thermostable D-hydantoinase and the application thereof” (National Science Council, priority 2000, dated 2002).
Like-named read-outs stand apart in the source and are kept apart here.

Assays:
Assay type in all cases: biochemical, Bacillus circulans
D-hydantoinase [1] = assay: Substrate selection of D-hydantoinase; conditions: substrate 10 mM; for Conversion to the corresponding N-carbamoyl amino acid / Specific activity: 50° C., 10 min; for Relative activity: percentage based on activity for dihydrouracil
Description: 10 mM Dihydrouracil, hydantoin, D,L-p-HPH, 5-[2-(methylthio)ethyl]hydantoin, and D,L-homophenylalanyl-hydantoin were used as substrates, respectively. The vector pQE-bcidht in E. coli NovaBlue, crude extracts thereof or the purified D-hydantoinase of the present invention was reacted with each substrate at 50° C. for 10 min. Enzyme activity was then measured.

D-hydantoinase [2] = assay: Effects of chelator on D-hydantoinase activity; conditions: chelator 10 μM, incubation for 10 hours
Description: The vector pQE-bcidht in E. coli NovaBlue, crude extracts thereof or the purified D-hydantoinase of the present invention was mixed with hydrophilic chelator, EDTA, and hydrophobic chelator, 2,6-dipicolinic acid, at 10 μM concentration, respectively. The mixture was incubated for 0-12 hours, and the enzyme activity was measured.

D-hydantoinase [3] = assay: Effects of metal ions on D-hydantoinase activity
D-hydantoinase [4] = assay: Effects of H2O2, NaCl and NH4Cl on D-hydantoinase activity; conditions: 10 min; for Effect on enzyme activity: concentration as high as 0.8 M, room temperature
Description: The vector pQE-bcidht in E. coli NovaBlue, crude extracts thereof or the purified D-hydantoinase of the present invention was incubated at 25° C. for 10 min. Afterwards, the catalase was added to the solution to remove residual H2O2, and then the enzyme activity was measured. In addition, various concentrations of NaCl and NH4Cl were added to the solution containing D-hydantoinase. The solution was incubated at room temperature for 10 min, and the enzyme activity was measured.

D-hydantoinase [5] = assay: Reaction pH of D-hydantoinase; conditions: 10 mM D,L-p-HPH, 50° C., 10 min
Description: The substrate D,L-p-HPH was dissolved in various pH buffers at the final concentration of 10 mM. The vector pQE-bcidht in E. coli NovaBlue, crude extracts thereof or the purified D-hydantoinase of the present invention, were added to each buffer containing substrate, and incubated at 50° C. for 10 min. The specific activity of the enzyme was then measured.

D-hydantoinase [6] = assay: Reaction temperature of D-hydantoinase; conditions: 500 μM Mn2+, 10 mM D,L-p-HPH, pH 8.0, 10 min
Description: The vector pQE-bcidht in E. coli NovaBlue, crude extracts thereof or the purified D-hydantoinase of the present invention (containing 500 μM Mn^2+), was added to 10 mM substrate of D,L-p-HPH (dissolved in 50 mM Tris-HCl (pH 8.0)). The mixture was incubated at various temperature (30-90° C.) for 10 min. The specific activity of the enzyme was then measured.

D-hydantoinase [7] = assay: Thermostability of D-hydantoinase; conditions: after 60 days incubation at 50° C.
Description: The vector pQE-bcidht in E. coli NovaBlue, crude extracts thereof or the purified D-hydantoinase of the present invention (47 unit/mg; containing 500 μM Mn^2+), was incubated at 50° C. in a thermostat water bath. The specific activity of the enzyme was measured at various time intervals.

D-hydantoinase [8] = assay: Conditions of converting D,L-p-HPH by D-hydantoinase; conditions: enzyme pre-mixed with Mn2+ and incubated in an ice solution for 4 days
Description: The reaction pH of D-hydantoinase is between 5 and 10. […] The substrate solubility and enzyme activity can be elevated by grinding D,L-p-HPH to powder form, dissolving the powdered substrate in 50 mM Tris-HCl (pH 8.0), followed by stirring the solution at room temperature for 2 hours. In addition, A suitable amount of DMSO can also enhance the solubility of substrate D,L-p-HPH, and elevate the conversion efficiency from D,L-p-HPH to D-p-HPG by the D-hydantoinase of the present invention.

[9] = ion 500 μM, 15 min at room temperature, 10 mM D,L-p-HPH in 50 mM Tris-HCl pH 8.0
[10] = ion 500 μM, percentage based on activity without adding ions

Question: With `O=C1NC(=O)C(CCc2ccccc2)N1` (racemic) [D,L-Homophenylalanyl-hydantoin, D,L-homophenylalanyl-hydantoin] as the molecule, how does the “Conversion to the corresponding N-carbamoyl amino acid” value (from here on “Conversion”) (D-hydantoinase [1]) read?
Answer: capable of converting

Question: What about the Specific activity (D-hydantoinase [1]) of the same molecule?
Answer: 45.64 unit/mg

Question: What about the Relative activity (D-hydantoinase [1]) of the same molecule?
Answer: 84%

Question: What does the source list for `O=C1NC(=O)C(c2ccc(O)cc2)N1` (racemic) [D,L-p-Hydroxyphenylhydantoin, D,L-p-hydroxyphenylhydantoin]?
Answer: Conversion to the corresponding N-carbamoyl amino acid (D-hydantoinase [1]): capable of converting; Specific activity (D-hydantoinase [1]): 47.43 unit/mg; Relative activity (D-hydantoinase [1]): 87%

Question: With `O=C(O)c1cccc(C(=O)O)n1` [2,6-dipicolinic acid] as the molecule, how does the Retained enzyme activity (D-hydantoinase [2]) read?
Answer: 40%

Question: Which “Conversion” value (D-hydantoinase [1]) does the source give for `CSCCC1NC(=O)NC1=O` (stereo not shown) [5-[2-(Methylthio)ethyl]-hydantoin, 5-[2-(methylthio)ethyl]hydantoin] here?
Answer: capable of converting

Question: What about the Specific activity (D-hydantoinase [1]) of the same molecule?
Answer: 21.48 unit/mg

Question: What about the Relative activity (D-hydantoinase [1]) of the same molecule?
Answer: 40%

Question: `[Ca+2].[Cl-].[Cl-]` [CaCl2] was tested. Which Specific activity (D-hydantoinase [3]; [9]) did it give?
Answer: 2.53 unit/mg

Question: What about the Relative activity (D-hydantoinase [3]; [10]) of the same molecule?
Answer: 88%

Question: Which results are given for `[Cl-].[Cl-].[Co+2]` [CoCl2]?
Answer: Effect on enzyme activity (D-hydantoinase [3]): enhance the enzyme activity; Increase of enzyme activity, times original activity (D-hydantoinase [3]): 4.5 times; Relative activity (D-hydantoinase [3]): 252%; Specific activity (D-hydantoinase [3]; pH 8): 7.25 unit/mg

Question: With `[Cl][Cu][Cl]` [CuCl2] as the molecule, how does the “Inhibition of D-hydantoinase activity” value (D-hydantoinase [3]; ion 500 μM) read?
Answer: 22%

Question: And the Specific activity (D-hydantoinase [3]; [9])?
Answer: 2.26 unit/mg

Question: What about the Relative activity (D-hydantoinase [3]; [10]) of the same molecule?
Answer: 78%

Question: `O=C1CCNC(=O)N1` [Dihydrouracil] was tested. Which Specific activity (D-hydantoinase [1]) did it give?
Answer: 54.29 unit/mg

Question: And the Specific activity (D-hydantoinase [1]; listed as dihydrouracil)?
Answer: 54 unit/mg

Question: What about the Relative activity (D-hydantoinase [1]) of the same molecule?
Answer: 100%

Question: Which Retained enzyme activity (D-hydantoinase [2]) does the source give for `O=C(O)CN(CCN(CC(=O)O)CC(=O)O)CC(=O)O` [EDTA] here?
Answer: 70%

Question: Which Specific activity (D-hydantoinase [3]; [9]) does the source give for `[Cl][Fe]([Cl])[Cl]` [FeCl3] here?
Answer: 2.52 unit/mg

Question: What about the Relative activity (D-hydantoinase [3]; [10]) of the same molecule?
Answer: 87.5%

Question: How did the Specific activity (D-hydantoinase [3]; [9]) turn out when `O=S(=O)([O-])[O-].[Fe+2]` [FeSO2] was run?
Answer: 2.52 unit/mg

Question: What about the Relative activity (D-hydantoinase [3]; [10]) of the same molecule?
Answer: 87.5%

Question: For `OO` [H2O2], which Retained enzyme activity (D-hydantoinase [4]; 0.8 M H2O2, 25° C.) is on record?
Answer: 85%

Question: With `O=C1CNC(=O)N1` [Hydantoin] as the molecule, how does the “Conversion” value (D-hydantoinase [1]) read?
Answer: capable of converting

Question: And the Specific activity (D-hydantoinase [1])?
Answer: 41.43 unit/mg

Question: What about the Relative activity (D-hydantoinase [1]) of the same molecule?
Answer: 76%

Question: How did the Specific activity (D-hydantoinase [3]; [9]) turn out when `[Cl-].[Cl-].[Mg+2]` [MgCl2] was run?
Answer: 2.62 unit/mg

Question: What about the Relative activity (D-hydantoinase [3]; [10]) of the same molecule?
Answer: 91%

Question: Which results are given for `O=S(=O)([O-])[O-].[Mg+2]` [MgSO4]?
Answer: Specific activity (D-hydantoinase [3]; [9]): 2.69 unit/mg; Relative activity (D-hydantoinase [3]; [10]): 94%

Question: How did the “Increase of enzyme activity, times original activity” value (D-hydantoinase [3]; 500 μM Mn2+) turn out when `[Cl][Mn][Cl]` [MnCl2] was run?
Answer: 7.7 times

Question: And the “Effect on enzyme activity” value (D-hydantoinase [3]; divalent metal ion added)?
Answer: enhance the enzyme activity

Question: What about the Specific activity (D-hydantoinase [3]; [9]) of the same molecule?
Answer: 22.25 unit/mg

Question: And the Relative activity (D-hydantoinase [3]; [10])?
Answer: 773%

Question: `Cl.N` [NH4Cl] was tested. Which “Effect on enzyme activity” value (D-hydantoinase [4]) did it give?
Answer: not affected

Question: How did the “Effect on enzyme activity” value (D-hydantoinase [4]) turn out when `[Cl-].[Na+]` [NaCl] was run?
Answer: not affected

Question: Which “Increase of enzyme activity, times original activity” value (D-hydantoinase [3]; 100 μM Ni2+) does the source give for `O=S(=O)([O-])[O-].[Ni+2]` [NiSO4] here?
Answer: 1.3 times

Question: And the “Effect on enzyme activity” value (D-hydantoinase [3]; divalent metal ion added)?
Answer: enhance the enzyme activity

Question: And the Specific activity (D-hydantoinase [3]; [9])?
Answer: 4.00 unit/mg

Question: What about the Relative activity (D-hydantoinase [3]; [10]) of the same molecule?
Answer: 139%

Question: With `O=S(=O)([O-])[O-].[Zn+2]` [ZnSO4] as the molecule, how does the “Inhibition of D-hydantoinase activity” value (D-hydantoinase [3]; ion 500 μM) read?
Answer: 50%

Question: What about the Specific activity (D-hydantoinase [3]; [9]) of the same molecule?
Answer: 1.44 unit/mg

Question: And the Relative activity (D-hydantoinase [3]; [10])?
Answer: 50%

B1: D-hydantoinase: thermostable D-hydantoinase from Bacillus circulans, amino acid sequence SEQ ID NO:1, 461 amino acids, expressed in E. coli (protein)
chain: MKKWIRNGTVVTASDTYQADVLIDGEKVVAIGSDLQATDAEVIDATGYYLLPGGIDPHTHLDMPFGGTVTSDNFFTGTKAAAFGGTTSIVDFCLTSKGESLHSAIATWHEKARGKAVIDYGFHLMVSDANDHVLEELESVVNNEGITSLKVFMAYKNVLMADDETLFKTLIRAKELGALVQVHAENGDVLDYLTKQALAEGNTDPIYHAYTRPPEAEGEATGRAIALTALADAQLYVVHVSCADAVRRIAEAREKGWNVYGETCPQYLVLDITALEKPDFEGAKYVWSPPLREKWNQDVLWSALKNGILQTVGSDHCPFNFSGQKELGRRDFTKIPNGGPIIEDRMTILFSEGVRKGKISLNQFVDITSTKVAKLFGMFPQKGTIAVGSDADIVLFDPTVQRTISVETHHMNVDYNPFEGMQVHGDVISVLSRGAFVVRNKQFVGHAGAGRYVKRSTFARP
Question: How did the “Enzyme activity” value (D-hydantoinase [5]; pH 4.0) turn out when B1 was run?
Answer: loses its entire activity

Question: And the Highest specific activity (D-hydantoinase [5]; pH 8.5)?
Answer: 3.36 unit/mg

Question: What about the Specific activity (D-hydantoinase [6]; 30° C.) of the same molecule?
Answer: 9.0 unit/mg

Question: And the Highest specific activity (D-hydantoinase [6]; 60° C.)?
Answer: 28.32 unit/mg

Question: And the Specific activity (D-hydantoinase [6]; 90° C.)?
Answer: 4.26 unit/mg

Question: And the “Activity after long incubation” value (D-hydantoinase [7])?
Answer: retains activity

Question: And the “Maximum specific activity for catalysis of D,L-p-HPH” value (D-hydantoinase [8])?
Answer: 47 unit/mg
